Measurements taken from patent EP4477653A1 (Perha Pharmaceuticals, priority 2023, dated 2024).

Target: T1, human recombinant A3AR (expressed in HEK-293 cells) (Homo sapiens, UniProt P0DMS8)
T1 construct: host or cells: HEK-293 cells
T1 sequence (P0DMS8 1-318): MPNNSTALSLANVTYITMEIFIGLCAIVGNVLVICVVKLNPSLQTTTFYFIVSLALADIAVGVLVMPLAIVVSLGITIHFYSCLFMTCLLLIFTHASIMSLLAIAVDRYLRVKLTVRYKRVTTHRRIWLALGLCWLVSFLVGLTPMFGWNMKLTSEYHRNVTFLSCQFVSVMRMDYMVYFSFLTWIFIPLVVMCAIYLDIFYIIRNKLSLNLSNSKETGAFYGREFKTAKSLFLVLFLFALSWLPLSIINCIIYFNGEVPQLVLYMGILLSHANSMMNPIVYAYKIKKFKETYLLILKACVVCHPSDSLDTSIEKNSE
Assay: Adenosine receptors antagonism assay (Eurofins), [125I]-AB-MECA radioligand competition
Assay type: binding
Conditions: [125I]-AB-MECA 0.15 nM, r.t., 120 min; IC50 from dose-response curves; read-out: Potency Class A3AR

SMILES	IC50 [nM]
CCC(CC)Nc1cc(NCc2ccccn2)c2nnc(C(C)C)n2n1 [compound 51, N6-(1-ethylpropyl)-3-isopropyl-N8-(2-pyridylmethyl)-[1,2,4]triazolo[4,3-b]pyridazine-6,8-diamine]	1 to 10
CC(C)c1nnc2c(NCc3ccccn3)cc(NC3CC(F)(F)C3)nn12 [compound 54, N6-(3,3-difluorocyclobutyl)-3-isopropyl-N8-(2-pyridylmethyl)-[1,2,4]triazolo[4,3-b]pyridazine-6,8-diamine]	10 to 100
CCOC(=O)CCNc1cc(NCc2ccccc2)c2nnc(C(C)C)n2n1 [compound 29, ethyl 3-[[8-(benzylamino)-3-isopropyl-[1,2,4]triazolo[4,3-b]pyridazin-6-yl]amino]propanoate]	10 to 100
CCC(CC)Nc1cc(NC(=O)c2ccccn2)c2nnc(C(C)C)n2n1 [compound 97, N-[6-(1-ethylpropylamino)-3-isopropyl-[1,2,4]triazolo[4,3-b]pyridazin-8-yl]pyridine-2-carboxamide]	10 to 100
CCCNc1cc(NCc2ccccn2)c2nnc(C3CC3)n2n1 [compound 190, 3-cyclopropyl-N6-propyl-N8-(pyridin-2-ylmethyl)-[1,2,4]triazolo[4,3-b]pyridazine-6,8-diamine]	10 to 100
CCC(CC)Nc1cc(NCc2cccnc2)c2nnc(C(C)C)n2n1 [compound 50, N6-(1-ethylpropyl)-3-isopropyl-N8-(3-pyridylmethyl)-[1,2,4]triazolo[4,3-b]pyridazine-6,8-diamine]	1 to 10
CCC(CC)Nc1cc(Nc2cccnc2)c2nnc(C3CC3)n2n1 [compound 173, 3-cyclopropyl-N6-(1-ethylpropyl)-N8-(3-pyridyl)-[1,2,4]triazolo[4,3-b]pyridazine-6,8-diamine]	< 1
CCC(CC)Nc1cc(Nc2ccc(OC)nc2)c2nnc(C(C)C)n2n1 [compound 159, 3-isopropyl-N8-(6-methoxypyridin-3-yl)-N6-(pentan-3-yl)-[1,2,4]triazolo[4,3-b]pyridazine-6,8-diamine]	< 1
COCCCNc1cc(NCc2ccccc2)c2nnc(C3CC3)n2n1 [compound 31, N8-benzyl-3-cyclopropyl-N6-(3-methoxypropyl)-[1,2,4]triazolo[4,3-b]pyridazine-6,8-diamine]	10 to 100
c1ccc(CNc2cc(N3CCCCC3)nn3c(C4CC4)nnc23)nc1 [compound 207, 3-cyclopropyl-6-(1-piperidyl)-N-(2-pyridylmethyl)-[1,2,4]triazolo[4,3-b]pyridazin-8-amine]	100 to 1000
CC[C@H](CO)Nc1cc(NCc2ccccc2)c2nnc(C(C)C)n2n1 [compound 1, (2R)-2-[[8-(benzylamino)-3-isopropyl-[1,2,4]triazolo[4,3-b]pyridazin-6-yl]amino]butan-1-ol]	10 to 100
CCC(CC)Nc1cc(Nc2cncc(OC)c2)c2nnc(C(C)C)n2n1 [compound 160, 3-isopropyl-N8-(5-methoxypyridin-3-yl)-N6-(pentan-3-yl)-[1,2,4]triazolo[4,3-b]pyridazine-6,8-diamine]	1 to 10
CCC(CC)Nc1cc(Nc2ccnnc2)c2nnc(C(C)C)n2n1 [compound 149, 3-isopropyl-N6-(pentan-3-yl)-N8-(pyridazin-4-yl)-[1,2,4]triazolo[4,3-b]pyridazine-6,8-diamine]	1 to 10
CCC(CC)Nc1cc(NCc2ccccn2)c2nnc(C(C)CC)n2n1 (centres unmarked) [compound 67, N6-(1-ethylpropyl)-N8-(2-pyridylmethyl)-3-sec-butyl-[1,2,4]triazolo[4,3-b]pyridazine-6,8-diamine]	1 to 10
CCC(CC)Nc1cc(NCc2ncccn2)c2nnc(C(C)C)n2n1 [compound 92, N6-(1-ethylpropyl)-3-isopropyl-N8-(pyrimidin-2-ylmethyl)-[1,2,4]triazolo[4,3-b]pyridazine-6,8-diamine]	10 to 100
CC(C)c1nnc2c(NCc3ccccc3)cc(NCCC(N)=O)nn12 [compound 25, 3-[[8-(benzylamino)-3-isopropyl-[1,2,4]triazolo[4,3-b]pyridazin-6-yl]amino]propanamide]	100 to 1000
CCC(CC)Nc1cc(NCc2cnccn2)c2nnc(C(C)C)n2n1 [compound 94, N6-(1-ethylpropyl)-3-isopropyl-N8-(pyrazin-2-ylmethyl)-[1,2,4]triazolo[4,3-b]pyridazine-6,8-diamine]	1 to 10
CCC(CC)Nc1cc(NCc2ccccn2)c2nnc(C3CC3)n2n1 [compound 62, 3-cyclopropyl-N6-(1-ethylpropyl)-N8-(2-pyridylmethyl)-[1,2,4]triazolo[4,3-b]pyridazine-6,8-diamine]	1 to 10
COCCCCCNc1cc(NCc2ccccc2)c2nnc(C(C)C)n2n1 [compound 16, N8-benzyl-3-isopropyl-N6-(5-methoxypentyl)-[1,2,4]triazolo[4,3-b]pyridazine-6,8-diamine]	100 to 1000
CCC(CC)Nc1cc(NC(CC)CC)c2nnc(C(C)C)n2n1 [compound 114, N6,N8-bis(1-ethylpropyl)-3-isopropyl-[1,2,4]triazolo[4,3-b]pyridazine-6,8-diamine]	1 to 10
CCC(CC)CNc1cc(NCC(CC)CC)c2nnc(C(C)C)n2n1 [compound 167, N6,N8-bis(2-ethylbutyl)-3-isopropyl-[1,2,4]triazolo[4,3-b]pyridazine-6,8-diamine]	1 to 10
CCC(CC)Nc1cc(NCCCc2ccncc2)c2nnc(C(C)C)n2n1 [compound 91, N6-(1-ethylpropyl)-3-isopropyl-N8-[3-(4-pyridyl)propyl]-[1,2,4]triazolo[4,3-b]pyridazine-6,8-diamine]	1 to 10
CC(C)Nc1cc(NCc2ccccn2)c2nnc(C3CC3)n2n1 [compound 192, 3-cyclopropyl-N6-isopropyl-N8-(pyridin-2-ylmethyl)-[1,2,4]triazolo[4,3-b]pyridazine-6,8-diamine]	1 to 10
CCC(CC)Nc1cc(NCc2ccccn2)c2nnc(CC(C)C)n2n1 [compound 69, N6-(1-ethylpropyl)-3-isobutyl-N8-(2-pyridylmethyl)-[1,2,4]triazolo[4,3-b]pyridazine-6,8-diamine]	10 to 100
CCC(CC)Nc1cc(Nc2cc(OC)cnn2)c2nnc(C(C)C)n2n1 [compound 162, 3-isopropyl-N8-(5-methoxypyridazin-3-yl)-N6-(pentan-3-yl)-[1,2,4]triazolo[4,3-b]pyridazine-6,8-diamine]	< 1
CC(C)c1nnc2c(NCc3ccccc3)cc(NCCCCCO)nn12 [compound 15, 5-[[8-(benzylamino)-3-isopropyl-[1,2,4]triazolo[4,3-b]pyridazin-6-yl]amino]pentan-1-ol]	100 to 1000
c1ccc(CNc2cc(NC34CC5CC(CC(C5)C3)C4)nn3c(C4CC4)nnc23)nc1 [compound 202, N6-((3s,5s,7s)-adamantan-1-yl)-3-cyclopropyl-N8-(pyridin-2-ylmethyl)-[1,2,4]triazolo[4,3-b]pyridazine-6,8-diamine]	1 to 10
CCC(CC)Nc1cc(NCc2ccncc2)c2nnc(C(C)C)n2n1 [compound 49, N6-(1-ethylpropyl)-3-isopropyl-N8-(4-pyridylmethyl)-[1,2,4]triazolo[4,3-b]pyridazine-6,8-diamine]	1 to 10
CCC(CC)Nc1cc(NCCCc2ccccn2)c2nnc(C(C)C)n2n1 [compound 89, N6-(1-ethylpropyl)-3-isopropyl-N8-[3-(2-pyridyl)propyl]-[1,2,4]triazolo[4,3-b]pyridazine-6,8-diamine]	10 to 100
